Reference: PubChem BioAssay AID611 (The Scripps Research Institute Molecular Screening Center, 2007)
Activity calls are given as the source filed them.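 Rule for the calls: active = IC50 at or below 10 micromolar, estimated by hand when no curve fit or under half inhibition at top dose; inactive = IC50 above 10 micromolar.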

Target: Steroidogenic factor 1 (Homo sapiens) (UniProt Q13285)
Experiment: inhibition of SF-1 LBD-driven luciferase – cell-based, CHO-K1, Gal4-SF-1 LBD, luciferase luminescence, counter-screen for RORA inhibitor project, dose response (AID 611)
Details: CHO-K1 Gal4-SF-1 LBD luciferase reporter

Chain of Steroidogenic factor 1 (Homo sapiens) (Q13285 whole entry, looked up, the tested form may be a part): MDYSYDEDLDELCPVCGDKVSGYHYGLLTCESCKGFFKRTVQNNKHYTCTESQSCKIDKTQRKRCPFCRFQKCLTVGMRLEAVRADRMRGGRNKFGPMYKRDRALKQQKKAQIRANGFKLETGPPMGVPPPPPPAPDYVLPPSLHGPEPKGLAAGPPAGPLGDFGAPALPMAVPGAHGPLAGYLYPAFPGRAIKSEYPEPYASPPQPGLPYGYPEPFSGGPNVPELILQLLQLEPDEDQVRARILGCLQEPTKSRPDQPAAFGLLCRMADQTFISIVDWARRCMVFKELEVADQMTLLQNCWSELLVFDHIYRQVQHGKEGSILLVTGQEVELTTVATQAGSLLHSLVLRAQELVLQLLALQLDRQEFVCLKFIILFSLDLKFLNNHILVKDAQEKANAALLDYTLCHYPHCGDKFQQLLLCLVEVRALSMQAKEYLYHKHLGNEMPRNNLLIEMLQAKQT

| IC50 | SMILES |
| --- | --- |
| 2140 nM | O=S(=O)(c1ccc2c(c1)C(=NO)c1cc(S(=O)(=O)N3CCCCC3)ccc1-2)N1CCCCC1 |
| > 99000 nM (inactive) | O=C(O)CCCCCN1C(=O)CSC1=S |
| 6660 nM | COC(=O)C1=C(CN2CCCc3ccccc32)NC(=O)NC1c1ccc(F)cc1 (centres undefined) |
| 675 nM | COc1cc(/C=N/O)ccc1OCc1ccc(C(=O)O)cc1 |
| 1500 nM | Cc1ccc(C(=O)/C=C/Nc2ccccn2)cc1 |
| 2550 nM | Cn1nc(CC(=O)Nc2ccc(N3CCN(C(=O)OC(C)(C)C)CC3)cc2)c2ccccc2c1=O |
| inactive | CC(=O)CC1OC(=O)C(Br)=C1NCc1ccccc1 (centres undefined) |
| 4880 nM | O=C(/C=C\Nc1ccccn1)c1ccc(Cl)cc1 |
| 1500 nM | O=C(/C=C\Nc1ccc2c(c1)OCO2)c1ccccn1 |
